# Source: patent publication US20260226020A1, “Nav 1.7 AND/OR Nav 1.8 BLOCKING HYDRAZIDES, PROCESSES FOR THE PREPARATION THEREOF, COMPOSITIONS, USES, METHODS OF TREATMENT USING SAME AND KITS” (Eurofarma Laboratórios S.A., priority 2023, published 2026)
# Tests used:
# [1] = molecular target: T1, human sodium channels Nav 1.8 (Homo sapiens, UniProt Q9Y5Y9); assay: Automated whole-cell voltage-clamp (ScreenPatch 384P) sodium current block in CHO cells expressing Nav 1.8; format: cell-based; conditions: CHO cells stably expressing human Nav 1.8; whole cell patch clamp, inactivation step -40 mV 8 s, test step 10 mV (TP1A), room temperature; mean where tested in two or more assays; read-out: Nav1.8 IC50
# T1 construct: expressed in transfected cells
# T1 sequence (Q9Y5Y9 whole entry): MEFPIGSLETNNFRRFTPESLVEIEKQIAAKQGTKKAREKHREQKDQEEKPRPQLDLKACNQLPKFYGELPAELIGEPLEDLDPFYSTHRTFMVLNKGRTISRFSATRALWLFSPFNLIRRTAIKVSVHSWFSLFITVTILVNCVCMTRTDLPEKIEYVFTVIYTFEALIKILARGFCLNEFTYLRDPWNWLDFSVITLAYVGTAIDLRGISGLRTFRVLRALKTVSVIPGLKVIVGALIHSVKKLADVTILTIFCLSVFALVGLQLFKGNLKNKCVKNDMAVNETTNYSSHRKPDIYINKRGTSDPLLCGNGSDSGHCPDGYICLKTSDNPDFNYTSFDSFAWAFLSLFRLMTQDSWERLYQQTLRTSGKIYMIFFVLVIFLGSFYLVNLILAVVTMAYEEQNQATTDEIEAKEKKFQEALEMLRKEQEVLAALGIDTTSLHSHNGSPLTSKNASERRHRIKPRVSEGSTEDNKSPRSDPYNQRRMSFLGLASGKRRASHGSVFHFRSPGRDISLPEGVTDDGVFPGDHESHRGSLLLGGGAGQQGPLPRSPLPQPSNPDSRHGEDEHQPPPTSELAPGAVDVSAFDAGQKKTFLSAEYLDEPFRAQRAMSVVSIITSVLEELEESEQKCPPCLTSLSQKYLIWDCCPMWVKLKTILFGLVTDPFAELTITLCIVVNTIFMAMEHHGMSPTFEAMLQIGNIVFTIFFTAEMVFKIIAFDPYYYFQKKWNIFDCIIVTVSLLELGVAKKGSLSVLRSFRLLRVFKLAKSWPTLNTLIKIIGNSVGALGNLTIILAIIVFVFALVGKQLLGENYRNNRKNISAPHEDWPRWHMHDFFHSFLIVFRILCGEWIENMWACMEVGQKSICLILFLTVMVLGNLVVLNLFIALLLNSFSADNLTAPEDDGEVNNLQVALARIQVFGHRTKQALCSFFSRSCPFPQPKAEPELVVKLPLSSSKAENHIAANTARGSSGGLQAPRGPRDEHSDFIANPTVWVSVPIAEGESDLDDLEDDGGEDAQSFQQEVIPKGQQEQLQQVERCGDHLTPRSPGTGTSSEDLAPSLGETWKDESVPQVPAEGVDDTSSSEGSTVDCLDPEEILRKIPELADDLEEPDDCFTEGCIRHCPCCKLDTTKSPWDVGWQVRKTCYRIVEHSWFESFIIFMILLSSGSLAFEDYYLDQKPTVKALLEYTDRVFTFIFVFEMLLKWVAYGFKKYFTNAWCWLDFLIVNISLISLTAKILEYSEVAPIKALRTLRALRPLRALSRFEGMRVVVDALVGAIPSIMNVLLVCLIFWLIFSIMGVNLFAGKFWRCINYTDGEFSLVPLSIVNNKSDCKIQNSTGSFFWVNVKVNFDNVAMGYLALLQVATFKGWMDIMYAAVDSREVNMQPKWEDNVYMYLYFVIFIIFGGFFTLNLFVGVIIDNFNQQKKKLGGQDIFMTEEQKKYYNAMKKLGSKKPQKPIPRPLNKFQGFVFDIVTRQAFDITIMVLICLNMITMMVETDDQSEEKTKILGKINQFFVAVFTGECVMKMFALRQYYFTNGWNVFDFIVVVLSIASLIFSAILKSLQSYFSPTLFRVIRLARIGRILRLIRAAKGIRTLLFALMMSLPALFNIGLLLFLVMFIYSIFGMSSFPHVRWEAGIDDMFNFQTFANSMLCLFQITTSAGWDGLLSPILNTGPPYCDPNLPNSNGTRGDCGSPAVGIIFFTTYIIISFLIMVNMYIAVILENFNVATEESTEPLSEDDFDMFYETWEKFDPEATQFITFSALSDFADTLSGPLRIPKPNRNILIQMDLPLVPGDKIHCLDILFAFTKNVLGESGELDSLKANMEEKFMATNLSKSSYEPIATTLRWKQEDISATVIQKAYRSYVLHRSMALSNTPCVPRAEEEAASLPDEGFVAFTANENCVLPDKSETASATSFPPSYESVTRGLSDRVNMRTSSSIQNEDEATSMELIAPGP
# Protocol: (§1) Biological assays were performed on Chinese hamster ovary (CHO) cells that express human sodium channels Nav 1.8 or Nav 1.7 in a stable manner.
# (§2) The experimental protocol voltage-clamp using the whole cell configuration was established on the automated ScreenPatch© 384P platform (SP384PE, Nanion Technologies, Livingston, NJ) and the results were recorded with a Nanion 384-well Patch Clamp chip (NPC) (Nanion Technologies, Livingston, NJ).
# (§3) Formula I compounds were diluted in eight concentrations in the extracellular solution composed of saline saline solution, buffered with HEPES (mM): NaCl, 137; KCl, 4; CaCl2, 3.8; MgCl2, 1; HEPES, 10; Glucose, 10; pH 7.4. The […], 50; CsF, 90; MgCl2, 5; EGTA, 5; HEPES, 10; pH 7.2. The duration of exposure of each compound with cells expressing Nav 1.7 or Nav 1.8 was at least five minutes, and the assays were performed at room temperature.
# (§4) The measurements of the sodium currents of Nav 1.8 and Nav 1.7 were obtained using the voltage protocol described below.
# (§5) A holding voltage of −100 mV was established followed by an inactivation voltage step at −40 mV for 8 seconds, followed by a step of −100 mV for 20 ms, followed by a 20 ms step for 10 mV for Nav 1.8 or 0 mV for Nav 1.7 (TP1A) before returning to the holding voltage of −100 mV.
# (§6) The protocol was repeated at a frequency of 0.05 Hz and the amplitude of the current was quantified throughout the recording of the TP1A phase. The variation in the amplitude of the peak current was evaluated according to the formula described below, after exposing the cells expressing the channels to each concentration of the different compounds:
# (§7) wherein ITP1A,basal and ITP1A,molecule represent the peaks of sodium current input into TP1A before exposure to the compound and in the presence of the compound, respectively.
# (§8) The decrease in the amplitude of the peak current, after the exposure of the cells to the compounds, was used to calculate the percentage of relative blockage of the channels in relation to the positive control according to the formula below: […]
# (§9) wherein % V and % CP represent the means of the values of current inhibition with a vehicle (DMSO) and positive controls, respectively. The sodium currents of the positive control were considered as 100%.
# (§10) wherein [Test] represents the concentration of the molecule evaluated, CI50 is the concentration of the compound that generates half of the maximum inhibition, N is the Hill coefficient, and % Block′ is the percentage of sodium channel current (Nav 1.8 and Nav 1.7) blocked at each concentration of the molecule evaluated. Data were obtained by nonlinear regression (nonlinear least squares) with XLfit for Excel (Microsoft, Redmond, WA).
# (§11) The compounds were tested in at least one assay to obtain the value of CI50. For compounds that were tested in two or more assays, the results are described as the means of the CI50 values.
# [2] = molecular target: T2, human sodium channels Nav 1.7 (Homo sapiens, UniProt Q15858); assay: Automated whole-cell voltage-clamp (ScreenPatch 384P) sodium current block in CHO cells expressing Nav 1.7; format: cell-based; conditions: CHO cells stably expressing human Nav 1.7; whole cell patch clamp, inactivation step -40 mV 8 s, test step 0 mV (TP1A), room temperature; mean where tested in two or more assays; read-out: Nav1.7 IC50
# T2 construct: expressed in transfected cells
# T2 sequence (Q15858 whole entry): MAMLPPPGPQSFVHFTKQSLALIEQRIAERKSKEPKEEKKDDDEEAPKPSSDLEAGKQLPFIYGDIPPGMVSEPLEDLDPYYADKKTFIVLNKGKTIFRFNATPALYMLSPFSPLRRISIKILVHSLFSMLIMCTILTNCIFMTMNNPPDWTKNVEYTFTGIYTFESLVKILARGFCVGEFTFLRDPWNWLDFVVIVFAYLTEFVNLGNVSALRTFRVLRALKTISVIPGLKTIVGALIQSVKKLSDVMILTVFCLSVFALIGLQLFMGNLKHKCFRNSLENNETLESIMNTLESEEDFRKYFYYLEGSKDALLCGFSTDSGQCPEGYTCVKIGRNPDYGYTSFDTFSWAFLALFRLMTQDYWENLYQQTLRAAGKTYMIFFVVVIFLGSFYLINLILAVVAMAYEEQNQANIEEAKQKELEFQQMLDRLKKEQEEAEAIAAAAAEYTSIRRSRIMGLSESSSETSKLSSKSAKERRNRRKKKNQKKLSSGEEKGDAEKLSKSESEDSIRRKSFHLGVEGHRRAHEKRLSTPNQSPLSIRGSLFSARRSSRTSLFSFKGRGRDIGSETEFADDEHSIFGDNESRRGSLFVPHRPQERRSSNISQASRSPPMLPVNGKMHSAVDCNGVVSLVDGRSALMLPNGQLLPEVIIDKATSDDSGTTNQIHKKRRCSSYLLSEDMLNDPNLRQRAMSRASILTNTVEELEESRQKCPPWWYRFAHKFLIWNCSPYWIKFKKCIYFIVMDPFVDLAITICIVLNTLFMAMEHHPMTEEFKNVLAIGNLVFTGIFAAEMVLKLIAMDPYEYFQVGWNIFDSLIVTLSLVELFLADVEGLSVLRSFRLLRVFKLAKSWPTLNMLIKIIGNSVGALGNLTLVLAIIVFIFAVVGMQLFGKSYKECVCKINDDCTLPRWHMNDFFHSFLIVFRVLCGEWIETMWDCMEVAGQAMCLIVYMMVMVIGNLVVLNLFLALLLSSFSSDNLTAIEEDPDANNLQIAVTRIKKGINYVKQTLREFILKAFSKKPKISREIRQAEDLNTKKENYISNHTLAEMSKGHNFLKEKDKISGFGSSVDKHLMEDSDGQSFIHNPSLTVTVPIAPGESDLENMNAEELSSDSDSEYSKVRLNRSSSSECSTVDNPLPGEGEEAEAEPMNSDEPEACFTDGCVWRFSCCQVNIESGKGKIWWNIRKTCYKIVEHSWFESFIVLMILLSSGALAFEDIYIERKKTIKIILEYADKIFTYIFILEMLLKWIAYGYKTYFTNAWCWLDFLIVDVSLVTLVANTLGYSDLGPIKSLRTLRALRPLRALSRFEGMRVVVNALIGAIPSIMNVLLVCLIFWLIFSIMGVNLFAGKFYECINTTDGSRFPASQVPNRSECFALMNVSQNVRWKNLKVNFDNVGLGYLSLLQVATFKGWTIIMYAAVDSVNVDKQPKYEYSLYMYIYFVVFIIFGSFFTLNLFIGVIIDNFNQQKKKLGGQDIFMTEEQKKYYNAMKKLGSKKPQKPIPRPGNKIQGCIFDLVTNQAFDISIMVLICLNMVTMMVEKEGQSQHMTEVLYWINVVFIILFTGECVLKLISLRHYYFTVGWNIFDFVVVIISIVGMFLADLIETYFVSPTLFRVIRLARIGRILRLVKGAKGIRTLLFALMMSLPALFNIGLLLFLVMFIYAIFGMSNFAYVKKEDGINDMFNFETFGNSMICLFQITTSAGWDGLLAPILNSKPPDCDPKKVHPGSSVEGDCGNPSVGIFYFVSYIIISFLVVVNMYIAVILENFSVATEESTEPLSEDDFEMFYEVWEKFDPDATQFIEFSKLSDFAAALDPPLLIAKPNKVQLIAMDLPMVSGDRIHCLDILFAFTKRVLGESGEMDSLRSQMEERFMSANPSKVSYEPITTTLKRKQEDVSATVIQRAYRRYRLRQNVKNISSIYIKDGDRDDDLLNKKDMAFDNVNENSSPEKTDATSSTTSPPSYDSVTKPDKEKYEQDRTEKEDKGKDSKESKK
# Protocol: as §1, §2, §3, §4, §5, §6, §7, §8, §9, §10, §11
IC50 [1] [nM],IC50 [2] [nM],SMILES
> 1000,> 1000,"CCOc1cc(C)c(-c2cncc(C(=O)NNCc3cc(OC)cc(OC)c3)n2)cn1 [Compound 40, N′-(3,5-dimethoxybenzyl)-6-(6-ethoxy-4-methylpyridin-3-yl)pyrazine-2-carbohydrazide]"
500 to 1000,> 1000,"CCOc1ccc(-c2cncc(C(=O)NNCc3cc(OC)cc(OC)c3)n2)c(C)n1 [Compound 41, N′-(3,5-dimethoxybenzyl)-6-(6-ethoxy-2-methylpyridin-3-yl)pyrazine-2-carbohydrazide]"
500 to 1000,> 1000,"COc1cc(CNNC(=O)c2cncc(-c3ccc(OC4CC4)nc3)n2)cc(OC)c1 [Compound 42, 6-(6-cyclopropoxypyridin-3-yl)-N′-(3,5-dimethoxybenzyl)pyrazine-2-carbohydrazide]"
< 500,> 1000,"CCOc1ccc(-c2cncc(C(=O)NN3CCc4ccc(OC)cc4C3)n2)cc1 [Compound 45, 6-(4-ethoxyphenyl)-N-(7-methoxy-3,4-dihydroisoquinoline-2(1H)-yl)pyrazine-2-carboxamide]"
> 1000,> 1000,"CCOc1ccc(-c2cnnc(C(=O)NNCc3ccccc3F)c2)cc1 [Compound 47, 5-(4-ethoxyphenyl)-N′-(2-fluorobenzyl)pyridazine-3-carbohydrazide]"
> 1000,> 1000,"CCOc1ccc(-c2ccnc(C(=O)NNCc3ccccc3F)c2)cc1 [Compound 48, 4-(4-ethoxyphenyl)-N′-(2-fluorobenzyl)picolinohydrazide]"
< 500,> 1000,"CCOc1ccc(-c2cncc(C(=O)NNCc3ccccc3F)c2)cc1 [Compound 49, 5-(4-ethoxyphenyl)-N′-(2-fluorobenzyl)nicotinohydrazide]"
> 1000,> 1000,"CCOc1ccc(-c2cccc(C(=O)NNCc3ccccc3F)n2)cc1 [Compound 50, 6-(4-ethoxyphenyl)-N′-(2-fluorobenzyl)picolinohydrazide]"
